Source: US20260199316A1, “SOLID DISPERSION, PREPARATION METHOD THEREFOR, AND USE THEREOF” (HANGZHOU GLUBIO PHARMACEUTICAL CO., LTD, priority 2022, published 2026)
Converted amounts (≈) assume the structure as drawn. Blank lines part the entries; values can stand above or below the molecule they belong to.

Assays:
[1] = Solubility of rapid solvent evaporation products in FaSSIF; assay type: physicochemical; details: fassif, thermodynamic from solid
Experimental: About 10 mg of the API control of the compound of formula A and 40 mg of the polymer carrier were transferred to 1 mL of DCM:EtOH=9:1 (v/v) to prepare a solution with 20% drug loading. The resulting clear solution was rapidly evaporated at 80° C. until there was no liquid to prepare a solid dispersion. The API control of the compound of formula A was also treated separately in the same manner.

[2] = Redispersion solubility test of solid dispersions (SGF, then SGF + 2 times volume FaSSIF); assay type: physicochemical; details: Concentration 1 mg/mL
Experimental: […] After stirring at 37° C. for 0.25 h and 0.5 h at 500 rpm, about 200 μL of the suspension was centrifuged at 14,000 rpm for 5 min, and the supernatant was diluted by 6 times with diluent for HPLC analysis. After sampling at 0.5 h, 2 times the volume of SGF of FaSSIF was immediately added to the suspension and the mixture was stirred for another 0.25 h, 0.5 h and 1.5 h, and then sampled for HPLC analysis and pH testing.

[3] = In vivo pharmacokinetic study of solid dispersions; set-up: species or system Sprague Dawley (SD) rats; details: male SD rats, intragastric 300 mg/kg (as compound of formula A), plasma
Experimental: According to Table 16, three solid dispersions, namely, formulation of API+Soluplus, formulation of API+PVP VA64 and formulation of API+HPC SSL, were selected to conduct in vivo pharmacokinetic tests with the corresponding amorphous form of API to study the pharmacokinetic characteristics of solid dispersions with different formulations in animals.
Method: solid dispersions with different formulations were evaluated with the pharmacokinetic characteristics of male Sprague Dawley (SD) rats after intragastric administration.
Materials: SD Rats (Male, 200-250 g, 6-8 Weeks Old, Zhejiang Weitong Lihua).
Steps: the solid dispersion with the formulation of Table 16 was tested by intragastric administration of 300 mg/kg (dosage calculated according to the compound of formula A) to SD rats, and the solvent was 25 mM citrate buffer pH3 containing 5% Tween 80. The animals were free to eat and drink water. Blood was collected from the jugular vein 15 min (0.25 h), 30 min (0.5 h), 60 min (1 h), 2 h, 4 h, 6 h, 8 h and 24 h after administration. Whole blood was collected in an anticoagulant tube containing EDTA-K2, and after thorough mixing, it was centrifuged at 4° C. and 4000 g for 5 minutes to separate plasma. Plasma samples were stored at −75±15° C. until the blood concentration of the compound of formula A was determined by LC-MS/MS. The relevant pharmacokinetic parameters were calculated using the non-compartmental model and linear/log trapezoidal method of Phoenix WinNonlin 6.1.

[4] = Approximate solubility test in solvents; assay type: physicochemical; details: organic solvent or mixture, thermodynamic from solid
Experimental: About 5 mg of the API control of Formula A was weighed into a 1.5 mL glass vial, and then a certain amount of different solvents (as shown in Table 1) were gradually added until the solid dissolved or the total volume reached 1 mL. The compound of formula A has a high approximate solubility in a mixed solvent of DCM and MeOH.
Different solvents have different solubility for the compound of formula A, considering the stability factor, DCM:EtOH (9:1, v/v) and acetone:water (9:1, v/v) may be used as solvent systems for the preparation of solid dispersions of the compound of formula A.

[5] = Chirality stability in solvents (other studies); assay type: physicochemical

- solubility at 0.25 h ([1]; 0.25 h): 470 µg/mL (≈ 1010 µM)
- solubility at 0.5 h ([1]; 0.5 h): 490 µg/mL (≈ 1050 µM)
- solubility at 0.75 h ([1]; 0.75 h): 600 µg/mL (≈ 1290 µM)
- solubility at 1 h ([1]; 1 h): 570 µg/mL (≈ 1220 µM)
- solubility at 2 h ([1]; 2 h): 450 µg/mL (≈ 964 µM)
- End point pH [2]: 6.55
- solubility at 0.75 h ([2]; SGF + 2 times volume FaSSIF, fassif, thermodynamic from solid, 37° C., read-out: Redispersion solubility, Step 2: SGF + 2 times volume FaSSIF (0.75 hr)): 460 µg/mL
- solubility at 1 h ([2]; SGF + 2 times volume FaSSIF, fassif, thermodynamic from solid, 37° C., read-out: Redispersion solubility, Step 2: SGF + 2 times volume FaSSIF (1.0 hr)): 440 µg/mL
- solubility at 2 h ([2]; SGF + 2 times volume FaSSIF, pH 6.55, fassif, thermodynamic from solid, 37° C., read-out: Redispersion solubility, Step 2: SGF + 2 times volume FaSSIF (2.0 hr)): 270 µg/mL
- solubility at 0.25 h ([2]; simulated gastric fluid (SGF), simulated gastric fluid, thermodynamic from solid, 37° C., read-out: Redispersion solubility, Step 1: SGF (0.25 hr)): 960 µg/mL
- solubility at 0.5 h ([2]; simulated gastric fluid (SGF), simulated gastric fluid, thermodynamic from solid, 37° C., read-out: Redispersion solubility, Step 1: SGF (0.5 hr)): 980 µg/mL
- AUC(0-inf) ([3]; Sprague Dawley, rat, po): 112 µg·h/mL
- AUC(0-t) ([3]; Sprague Dawley, rat, po): 111 µg·h/mL
- Cmax ([3]; Sprague Dawley, rat, po): 18700 ng/mL
- Tmax ([3]; Sprague Dawley, rat, po): 1 h
- half-life ([3]; Sprague Dawley, rat, po): 4.06 h
- AUClast/D [3]: 369 ng·kg·h/mL/mg
SMILES: O=C1CC[C@H](N2Cc3cc(C(=O)N[C@H](c4ccc(Cl)cn4)C4CCC4)ccc3C2=O)C(=O)N1 [Amorphous form of API, N—((S)-(5-chloropyridin-2-yl)(cyclobutyl)methyl)-2-((S)-2,6-dioxopiperidin-3-yl)-1-oxoisoindoline-5-carboxamide]

- solubility ([4]; solvent ACN): < 5000 µg/mL
- solubility ([4]; solvent Acetone): < 5000 µg/mL
- solubility ([4]; solvent Acetone:ACN (1:1)): < 5000 µg/mL
- solubility ([4]; solvent Acetone:DCM (1:1)): < 5000 µg/mL
- solubility ([4]; solvent Acetone:DCM (4:1)): < 5000 µg/mL
- solubility ([4]; solvent Acetone:THF (1:1)): < 5000 µg/mL
- solubility ([4]; solvent DCM): < 5000 µg/mL
- solubility ([4]; solvent DCM:MeOH (1:1)): 25000 to 50000 µg/mL
- solubility ([4]; solvent DCM:MeOH (2:1)): 50000 to 100000 µg/mL
- solubility ([4]; solvent DCM:MeOH (4:1)): 50000 to 100000 µg/mL
- solubility ([4]; solvent DCM:MeOH (5:1)): 50000 to 100000 µg/mL
- solubility ([4]; solvent DCM:MeOH (7:1)): 50000 to 100000 µg/mL
- solubility ([4]; solvent DCM:MeOH (9:1)): 25000 to 50000 µg/mL
- solubility ([4]; solvent DCM:MeOH (99:1)): < 5000 µg/mL
- solubility ([4]; solvent DCM:THF (1:1)): < 5000 µg/mL
- solubility ([4]; solvent DCM:THF (4:1)): < 5000 µg/mL
- solubility ([4]; solvent Ethyl acetate): < 5000 µg/mL
- solubility ([4]; solvent MeOH): < 5000 µg/mL
- solubility ([4]; solvent THF): < 5000 µg/mL
- solubility ([4]; v/v), solvent Acetone:Water (9:1)): 15000 to 50000 µg/mL
- solubility ([4]; v/v), solvent DCM:EtOH (9:1)): 5000 to 15000 µg/mL
- Chirality stability ([5]; in MeOH): rapidly racemized
- Chirality stability ([5]; in acetone and ethanol): better chirality stability
SMILES: O=C1CC[C@H](N2Cc3cc(C(=O)N[C@H](c4ccc(Cl)cn4)C4CCC4)ccc3C2=O)C(=O)N1 [compound of formula A, N—((S)-(5-chloropyridin-2-yl)(cyclobutyl)methyl)-2-((S)-2,6-dioxopiperidin-3-yl)-1-oxoisoindoline-5-carboxamide]
